Consider one molecule from publication PMC6327044, “A chemical biology screen identifies a vulnerability of neuroendocrine cancer cells to SQLE inhibition” (Nature Communications, 2019).

Holding throughout (assay): cells
What all share (set-up): species or system panel of 482 human cancer cell lines; ATPLite luminescence growth inhibition after treatment, nine-point dilution curve, 482 cancer cell lines, 384-well
Settings in all cases: 72 h, recommended growth medium
On the technique in general: ATP-based viability assays read luminescence as a measure of living cells.

Experiment [1] deals with CAL27_UPPER_AERODIGESTIVE_TRACT. How it is done:
(§1) Cells were seeded in recommended growth media in black 384-well tissue culture treated plates at 500 cells per well. Cells were equilibrated in assay plates via centrifugation and placed in incubators for 24 h before treatment. […] Treated assay plates were incubated with compounds for 72 h and subsequently were developed for endpoint analysis using ATPLite. Each compound was assessed using a nine-point dilution curve. Cells were defined as sensitive to a given compound based on GI75 < 2 μM with manual quality control of curve fit. GI75 is defined as a drug concentration that causes a 75% reduction in assay readout relative to dimethyl sulfoxide (DMSO)-treated controls. To identify novel cancer vulnerabilities, we screened a panel of 482 cell lines with a diverse set of metabolic inhibitors. […] Given that SCLC is thought to arise from neuroendocrine cells in the lung[9], we tested the NB-598 sensitivity in a panel of 42 SCLC cell lines. We calculated a quantitative metric of sensitivity for each cell line based on the area under the curve (AUC) of the mu/mu.max curve to more accurately capture the potency and extent of NB-598 effects. […] We categorized the SCLC cell lines as sensitive (5/42), moderate (11/42), and insensitive (26/42) (Fig. 1c and Supplementary Data 2) and focused all subsequent efforts on this indication. […] To further understand the patterns of sensitivity, we conducted RNA sequencing (RNA-Seq; Supplementary Data 3) and proteomic (Supplementary Data 4) characterization of the SCLC panel to identify unbiased expression signatures associated with enhanced NB-598 response (Supplementary Fig. 1 and Supplementary Fig. 2). Given the growing understanding that SCLC tumors can be further subdivided based on the status of lineage-defining transcription factors, ASLC1 and NEUROD1, we specifically investigated NB-598 response as the function of ASCL1 and NEUROD1 expression levels. […] To further dissect the NB-598 response within the ASCL1-high/NEUROD-low subset of 25 cell lines, we identified RNA-Seq and proteomics expression signatures associated with NB

Another experiment has as its system HCC1195_LUNG. As for the experimental part:
as §1

Experiment [2] has as its system HTK_HAEMATOPOIETIC_AND_LYMPHOID_TISSUE. How it is done:
as §1

The test system of another experiment is IM95_STOMACH. How it is done: as §1
Experiment [3] deals with JVM13_HAEMATOPOIETIC_AND_LYMPHOID_TISSUE. As for the experimental part: as §1
For the next experiment, the system named is MFE280_ENDOMETRIUM
As for the experimental part: as §1

For a further experiment, the system named is NCIH1435_LUNG. As for the experimental part:
as §1

The next experiment relates to NCIH1623_LUNG. How it is done:
as §1

The test system of another experiment is NCIH2122_LUNG. As for the experimental part: as §1
The test system of a further experiment is NCIH2170_LUNG. As for the experimental part:
as §1

The subject of a further experiment is NCIN87_STOMACH. How it is done:
as §1

The subject of the next experiment is SKNBE2_AUTONOMIC_GANGLIA. How it is done:
as §1

The next experiment has as its system SKNFI_AUTONOMIC_GANGLIA. How it is done: as §1
The next experiment has as its system SNU503_LARGE_INTESTINE
How it is done:
as §1

In another experiment the test system is SW1116_LARGE_INTESTINE
How it is done:
as §1

A further experiment deals with TE4_OESOPHAGUS
How it is done:
as §1

The subject of experiment [4] is TMD8_HAEMATOPOIETIC_AND_LYMPHOID_TISSUE. How it is done: as §1

What is called GI50 is the concentration at which growth is held to half of that of the control.

For the molecule `CCN(C/C=C/C#CC(C)(C)C)Cc1cccc(OCc2cc(-c3ccsc3)cs2)c1` [NB-598], the GI50 in experiment [1] was 12.4 µM; in the experiment on HCC1195_LUNG, 2740 µM; in experiment [2], 4.77 µM; with IM95_STOMACH, 0.0118 µM; in experiment [3], 9.61 µM; in the experiment with MFE280_ENDOMETRIUM it was 0.0169 µM. In addition, the GI50 in the experiment with NCIH1435_LUNG worked out at 0.00311 µM; with NCIH1623_LUNG, 0.0194 µM; in the experiment on NCIH2122_LUNG, 7.51 µM; with NCIH2170_LUNG it was 0.608 µM; in the experiment on NCIN87_STOMACH, 9.65 µM; in the experiment with SKNBE2_AUTONOMIC_GANGLIA it was 0.0203 µM. The concentration for 50% growth inhibition (GI50) in the experiment on SKNFI_AUTONOMIC_GANGLIA stood at 0.0151 µM; in the experiment on SNU503_LARGE_INTESTINE, 0.598 µM; in the experiment with SW1116_LARGE_INTESTINE it was 19.1 µM; in the experiment on TE4_OESOPHAGUS it was 19.5 µM; in [4] it was 0.131 µM.
